In patent publication US20250059175A1, “Mutant Pi3k-Alpha Inhibitors And Their Use As Pharmaceuticals” (Prelude Therapeutics Incorporated, priority 2023, published 2025):

Columns and labels:
[1] = system: phosphorylation of AKT on Ser473 (PI3K pathway) in T-47D (heterozygous PIK3CA H1047R) cell line; experiment: PI3K pathway activation assay (pAKT Ser473 HTRF), T-47D cells; assay type: cell-based; details: T-47D (heterozygous PIK3CA H1047R) cells, two hours of treatment, pAKT Ser473 HTRF; for IC50: Homo sapiens, T47D, 2 h, read-out: T47D pAKT IC50
Protocol: (§1) The inhibitory activity of the compounds of the disclosure was evaluated by measuring phosphorylation of AKT on Ser473 as a readout of the PI3K pathway using HTRF (CisBio catalog number: 64AKSPE). These studies were conducted in the T-47D (heterozygous PIK3CA H1047R) and SKBR3 (PIK3CA WT) cell lines. Cells were maintained in a 37° C. incubator at 5% CO2 in the following media: T-47D: RPMI 1640, ATCC© Modification (Gibco, A10491-01) supplemented with 10% v/v FBS (Gibco, 26140-079), 1% penicillin streptomycin (Gibco, 15140-122), and 7.4 ug/mL insulin (MilliporeSigma, I9278); SKBR3: McCoy's 5a (Modified) Medium (Gibco, 16600-082) supplemented with 10% v/v FBS (Gibco, 26140-079). Cells were seeded in 384-well plates at a density of 4,000 cells/well. Compounds dissolved in DMSO were added using a digital dispense (D300E, Tecan) 10-point serial dilution. After two hours of treatment, cells were lysed for thirty minutes and then incubated with detection reagents per HTRF kit material and manufacturer's instructions. Fluorescence signal was measured with a multimode plate reader (Envision 2105, Perkin Elmer). Fluorescent signal was normalized to background and DMSO controls to obtain percent inhibition/activity for each compound.

[2] = system: phosphorylation of AKT on Ser473 (PI3K pathway) in SKBR3 (PIK3CA WT) cell line; experiment: PI3K pathway activation assay (pAKT Ser473 HTRF), SKBR3 cells; assay type: cell-based; details: Homo sapiens, SK-BR-3, 2 h, two hours of treatment
Protocol: as §1

IC50 [1] | IC50 [2] | T47D pAKT IC50 [1] | Compound
< 100 nM | > 10000 nM |  | Cc1cc([C@@H](C)Nc2ccc(Cl)nc2C(=O)O)nc(N2C(=O)OC[C@@H]2Cc2cccc(C)c2F)c1 [Example 20, 6-Chloro-3-(((R)-1-(6-((S)-4-(2-fluoro-3-methylbenzyl)-2-oxooxazolidin-3-yl)-4-methylpyridin-2-yl)ethyl)amino)picolinic acid]
< 100 nM | > 10000 nM |  | Cc1cc([C@@H](C)Nc2ccc(Cl)nc2C(=O)O)nc(N2C(=O)N(C)C[C@@H]2Cc2ccc(F)cc2)c1 [Example 58, 6-Chloro-3-(((R)-1-(6-((S)-5-(4-fluorobenzyl)-3-methyl-2-oxoimidazolidin-1-yl)-4-methylpyridin-2-yl)ethyl)amino)picolinic acid]
< 100 nM | 1000 to 10000 nM |  | C[C@@H](Nc1ccc(Cl)nc1C(=O)O)c1cc(F)cc(N2C(=O)OC[C@@H]2Cc2ccccc2F)c1 [Example 61, 6-Chloro-3-(((R)-1-(3-fluoro-5-((S)-4-(2-fluorobenzyl)-2-oxooxazolidin-3-yl)phenyl)ethyl)amino)picolinic acid]
< 100 nM | > 10000 nM |  | Cc1cc([C@@H](C)Nc2ccc(Cl)nc2C(=O)O)nc(N2C(=O)OC[C@@H]2Cc2ccc(F)cc2F)c1 [Example 26, 6-Chloro-3-(((R)-1-(6-((S)-4-(2,4-difluorobenzyl)-2-oxooxazolidin-3-yl)-4-methylpyridin-2-yl)ethyl)amino)picolinic acid]
< 100 nM | 1000 to 10000 nM |  | Cc1cc([C@@H](C)Nc2ccc(Cl)nc2C(=O)O)nc(N2C(=O)N(C)C[C@@H]2Cc2ccccc2)c1 [Example 60, 3-(((R)-1-(6-((S)-5-Benzyl-3-methyl-2-oxoimidazolidin-1-yl)-4-methylpyridin-2-yl)ethyl)amino)-6-chloropicolinic acid]
< 100 nM | > 10000 nM |  | COc1cc(C[C@H]2COC(=O)N2c2cc(C)cc([C@@H](C)Nc3ccc(Cl)nc3C(=O)O)n2)c(F)cn1 [Example 29, 6-Chloro-3-(((R)-1-(6-((S)-4-((5-fluoro-2-methoxypyridin-4-yl)methyl)-2-oxooxazolidin-3-yl)-4-methylpyridin-2-yl)ethyl)amino)picolinic acid]
< 100 nM | > 10000 nM |  | Cc1cc(C(C)Nc2ccc(F)nc2C(=O)O)nc(N2C(=O)OC[C@@H]2Cc2ccccc2)c1 (single isomer, unassigned) [Example 11]
 | 1000 to 10000 nM | ++ ++ | Cc1cc(C(C)Nc2ccc(Cl)nc2C(=O)O)nc(N2C(=O)OC[C@@H]2Cc2ccccc2)c1 (single isomer, unassigned) [Example 12]
< 100 nM | > 10000 nM |  | COc1ccc(C[C@H]2COC(=O)N2c2cc(C)cc([C@@H](C)Nc3ccc(Cl)nc3C(=O)O)n2)c(F)c1 [Example 27, 6-Chloro-3-(((R)-1-(6-((S)-4-(2-fluoro-4-methoxybenzyl)-2-oxooxazolidin-3-yl)-4-methylpyridin-2-yl)ethyl)amino)picolinic acid]
100 to 1000 nM | > 10000 nM |  | Cc1cc([C@@H](C)Nc2ccc(Cl)nc2C(=O)O)nc(N2C(=O)N(C)C[C@@H]2Cc2ccc(F)cc2F)c1 [Example 59, 6-Chloro-3-(((R)-1-(6-((S)-5-(2,4-difluorobenzyl)-3-methyl-2-oxoimidazolidin-1-yl)-4-methylpyridin-2-yl)ethyl)amino)picolinic acid]
< 100 nM | > 10000 nM |  | Cc1cc([C@@H](C)Nc2ccc(Cl)nc2C(=O)O)nc(N2C(=O)OC[C@@H]2Cc2cccc(C#N)c2)c1 [Example 48, 6-Chloro-3-(((R)-1-(6-((S)-4-(3-cyanobenzyl)-2-oxooxazolidin-3-yl)-4-methylpyridin-2-yl)ethyl)amino)picolinic acid]
< 100 nM | > 10000 nM |  | Cc1cc([C@@H](C)Nc2ccc(Cl)nc2C(=O)O)nc(N2C(=O)OC[C@@H]2Cc2ccc(F)cc2)c1 [Example 24, 6-Chloro-3-(((R)-1-(6-((S)-4-(4-fluorobenzyl)-2-oxooxazolidin-3-yl)-4-methylpyridin-2-yl)ethyl)amino)picolinic acid]
< 100 nM | > 10000 nM |  | Cc1cc(C(C)Nc2ccc(Br)nc2C(=O)O)nc(N2C(=O)OC[C@@H]2Cc2ccccc2)c1 (single isomer, unassigned) [Example 18]
< 100 nM | 1000 to 10000 nM |  | Cc1cc([C@@H](C)Nc2ccc(Cl)nc2C(=O)O)nc(N2C(=O)OC[C@@H]2Cc2ccncc2F)c1 [Example 21, 6-Chloro-3-(((R)-1-(6-((S)-4-((3-fluoropyridin-4-yl)methyl)-2-oxooxazolidin-3-yl)-4-methylpyridin-2-yl)ethyl)amino)picolinic acid]
< 100 nM | > 10000 nM |  | Cc1cc([C@@H](C)Nc2ccc(Cl)nc2C(=O)O)nc(N2C(=O)OC[C@@H]2Cc2ccc(C(F)(F)F)cc2)c1 [Example 23, 6-Chloro-3-(((R)-1-(4-methyl-6-((S)-2-oxo-4-(4-(trifluoromethyl)benzyl)oxazolidin-3-yl)pyridin-2-yl)ethyl)amino)picolinic acid]
< 100 nM | > 10000 nM |  | Cc1cc([C@@H](C)Nc2ccc(Cl)nc2C(=O)O)nc(N2C(=O)OC[C@@H]2Cc2ccc(C#N)cc2F)c1 [Example 49, 6-Chloro-3-(((R)-1-(6-((S)-4-(4-cyano-2-fluorobenzyl)-2-oxooxazolidin-3-yl)-4-methylpyridin-2-yl)ethyl)amino)picolinic acid]
